Legend:
Format in all cases: in vivo, human
[1] = Patient with Alzheimer's disease (Example V); details: person two, 200 mg bid
Protocol: person two presents with symptoms of memory loss and is diagnosed with Alzheimer's disease. The patient is given and maintained on a 200 mg bid dose of indomethacin heptyl ester. The progression of the symptoms stops.

[2] = Patient with oral premalignant lesion (Example VII); details: person, lozenges 100 mg twice a day for six months
Excerpt: A person presents with a white patch on their tongue and is diagnosed as having an oral premalignant lesion.

[3] = Patient with cervical intraepithelial neoplasia, HPV 16 detected (Example VIII); details: person, 0.5% in a cream on sponge/cervical cap, six months
Excerpt: A person presents to their gynecologist for evaluation. […] On biopsy, the patient is found to have cervical intraepithelial neoplasia. HPV 16 is detected. […] The SC-236 is discontinued with no recurrence of cervical intraepithelial neoplasia.

## CCCCCCCOC(=O)Cc1c(C)n(C(=O)c2ccc(Cl)cc2)c2ccc(OC)cc12 [Indomethacin Analog 1, indomethacin heptyl ester]
[1]
  progression of the symptoms (memory loss, Alzheimer's disease): stops

## NS(=O)(=O)c1ccc(-n2nc(C(F)(F)F)cc2-c2ccc(Cl)cc2)cc1 [SC-236, 4-[5-(4-chlorophenyl)-3-(trifluoromethyl)-1H-pyrazol-1-yl]benzenesulfonamide]
[2]
  outcome of oral premalignant lesion: resolution of the premalignant lesion
[3]
  repeat biopsy finding of cervical intraepithelial neoplasia: no further evidence of cervical intraepithelial neoplasia

Source: patent US20050031537A1, “Multifunctional COX-2 inhibitors” (priority 2002, published 2005)
